In US9434711B2 (Janssen Pharmaceutica, NV, priority 2007, dated 2016):

Biological target: canine TRPM8 (Canis lupus familiaris, UniProt Q1A7N1)
Experiment: In Vitro Canine TRPM8 Functional Assay (Ca2+ fluorescence, icilin activation)
Type: cell-based
Details: for IC50: HEK293 cells stably expressing canine TRPM8, icilin activation, eight-point dose-response, read-out: IC50; for inhibition at 0.2 µM: compound at 0.2 μM, canine TRPM8, icilin activation, read-out: % Inh @ 0.2
Outline: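 Eight-point dose-response curves, each point averaging quadruplicate wells, gave EC50 or IC50. Canine TRPM8-expressing HEK293 cells, dye-loaded (Calcium 3), were pre-exposed 5 min to compound, then challenged with icilin at roughly EC80; intracellular Ca2+ read by FLIPR or FDSS fluorescence.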

Chain of canine TRPM8 (Q1A7N1 1-1104): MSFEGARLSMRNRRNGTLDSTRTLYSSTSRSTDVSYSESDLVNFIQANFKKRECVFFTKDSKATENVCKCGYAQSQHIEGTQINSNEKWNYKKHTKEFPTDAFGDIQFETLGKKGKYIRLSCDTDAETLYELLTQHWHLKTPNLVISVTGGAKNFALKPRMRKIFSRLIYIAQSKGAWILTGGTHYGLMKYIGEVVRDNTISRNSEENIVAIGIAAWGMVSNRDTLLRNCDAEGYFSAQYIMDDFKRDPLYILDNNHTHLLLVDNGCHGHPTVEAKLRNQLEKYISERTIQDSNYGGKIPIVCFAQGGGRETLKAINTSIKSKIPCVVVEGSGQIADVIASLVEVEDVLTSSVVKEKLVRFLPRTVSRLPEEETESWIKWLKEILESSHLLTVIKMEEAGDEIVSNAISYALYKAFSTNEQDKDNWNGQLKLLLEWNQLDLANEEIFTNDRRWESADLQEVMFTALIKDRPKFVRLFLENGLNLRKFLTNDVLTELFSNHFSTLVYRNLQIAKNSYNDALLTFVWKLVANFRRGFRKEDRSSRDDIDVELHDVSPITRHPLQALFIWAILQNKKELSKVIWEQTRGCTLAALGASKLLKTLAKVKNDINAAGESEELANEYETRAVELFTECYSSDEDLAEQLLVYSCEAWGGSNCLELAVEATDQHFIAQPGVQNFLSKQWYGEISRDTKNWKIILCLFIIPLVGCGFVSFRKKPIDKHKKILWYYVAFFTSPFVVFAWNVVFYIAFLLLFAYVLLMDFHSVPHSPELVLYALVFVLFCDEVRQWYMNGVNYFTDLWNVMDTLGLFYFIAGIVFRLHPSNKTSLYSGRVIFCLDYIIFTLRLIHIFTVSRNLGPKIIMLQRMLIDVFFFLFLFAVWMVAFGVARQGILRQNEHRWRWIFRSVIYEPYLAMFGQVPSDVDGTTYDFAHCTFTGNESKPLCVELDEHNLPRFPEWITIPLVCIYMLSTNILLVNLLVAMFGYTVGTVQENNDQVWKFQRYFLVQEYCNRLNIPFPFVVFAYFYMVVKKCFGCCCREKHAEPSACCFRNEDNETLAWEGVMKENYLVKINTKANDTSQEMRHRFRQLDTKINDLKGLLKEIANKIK

Row | SMILES | IC50 [nM] | inhibition at 0.2 µM [%]
1 | CS(=O)(=O)Nc1ccc(S(=O)(=O)N(Cc2ccc(F)c(C(F)(F)F)c2)c2cc3ccccc3s2)cc1 [Compound 652, N-(Benzo[b]thiophen-2-yl)-N-(4-fluoro-3-trifluoromethyl-benzyl)-4-methanesulfonylamino-benzenesulfonamide] | 85 | 102
2 | O=S(=O)(c1ccc(Br)cc1)N(CCC1CC1)c1cc2ccccc2s1 [Compound 654, N-(Benzo[b]thiophen-2-yl)-N-(2-cyclopropyl-ethyl)-4-bromo-benzenesulfonamide] |  | 56
3 | O=S(=O)(c1ccc(Br)cc1)N(CCCCC(F)(F)F)c1cc2ccccc2s1 [Compound 655, N-(Benzo[b]thiophen-2-yl)-4-bromo-N-(5,5,5-trifluoro-pentyl)-benzenesulfonamide] |  | 55
4 | CC(C)(O)c1c(N(CCCCC(F)(F)F)S(=O)(=O)c2ccc(Br)cc2)sc2ccccc12 [Compound 656, 4-Bromo-N-(3-(1-hydroxy-1-methyl-ethyl)-benzo[b]thiophen-2-yl)-N-(5,5,5-trifluoro-pentyl)-benzenesulfonamide] | 53.7 | 98
5 | Cc1c(N(CCCCC(F)(F)F)S(=O)(=O)C(F)(F)F)sc2ccccc12 [Compound 662, C,C,C-Trifluoro-N-(3-methyl-benzo[b]thiophen-2-yl)-N-(5,5,5-trifluoro-pentyl)-methanesulfonamide] |  | 50.1
6 | O=S(=O)(N(Cc1ccc(F)c(C(F)(F)F)c1)c1cc2ccccc2s1)C(F)(F)F [Compound 663, N-Benzo[b]thiophen-2-yl-N-(4-fluoro-3-trifluoromethyl-benzyl)-C,C,C-trifluoro-methanesulfonamide] |  | 17.1
7 | Cc1c(N(Cc2ccc(F)c(C(F)(F)F)c2)S(=O)(=O)C(F)(F)F)sc2ccccc12 [Compound 664, C,C,C-Trifluoro-N-(4-fluoro-3-trifluoromethyl-benzyl)-N-(3-methyl-benzo[b]thiophen-2-yl)-methanesulfonamide] |  | 53.1
8 | Cc1c(N(CCC2CC2)S(=O)(=O)C(F)(F)F)sc2ccccc12 [Compound 665, N-(2-Cyclopropyl-ethyl)-C,C,C-trifluoro-N-(3-methyl-benzo[b]thiophen-2-yl)-methanesulfonamide] |  | 27.9
9 | Cc1c(N(Cc2ccc(F)c(C(F)(F)F)c2)S(=O)(=O)CC(F)(F)F)sc2ccccc12 [Compound 669, N-(4-Fluoro-3-trifluoromethyl-benzyl)-N-(3-methyl-benzo[b]thiophen-2-yl)-2,2,2-trifluoro-ethanesulfonamide] | 51.2 | 96.4
10 | Cc1c(N(CCC2CC2)S(=O)(=O)CC(F)(F)F)sc2ccccc12 [Compound 670, N-(2-Cyclopropyl-ethyl)-N-(3-methyl-benzo[b]thiophen-2-yl)-2,2,2-trifluoro-ethanesulfonamide] | 39 | 99.1
11 | Cc1c(N(CCCC(F)(F)F)S(=O)(=O)CC(F)(F)F)sc2ccccc12 [Compound 672, N-(3-Methyl-benzo[b]thiophen-2-yl)-N-(4,4,4-trifluoro-butyl)-2,2,2-trifluoro-ethanesulfonamide] | 74.9 | 75.3
12 | Cc1c(N(CCCCC(F)(F)F)S(=O)(=O)CC(F)(F)F)sc2ccccc12 [Compound 673, N-(3-Methyl-benzo[b]thiophen-2-yl)-N-(5,5,5-trifluoro-pentyl)-2,2,2-trifluoro-ethanesulfonamide] |  | 94.4
13 | COC(=O)c1ccc(S(=O)(=O)N(Cc2ccc(F)c(C(F)(F)F)c2)c2sc3ccccc3c2C2CC2)cc1 [Compound 674, N-(3-Cyclopropyl-benzo[b]thiophen-2-yl)-N-(4-fluoro-3-trifluoromethyl-benzyl)-4-carbomethoxy-benzenesulfonamide] | 77.6 | 85.4

More lines, in order of falling IC50, values ahead:

Row | IC50 [nM] | inhibition at 0.2 µM [%] | SMILES
14 | 34.5 | 100 | Cc1c(N(CCC(F)(F)F)S(=O)(=O)CC(F)(F)F)sc2ccccc12 [Compound 671, N-(3-Methyl-benzo[b]thiophen-2-yl)-N-(3,3,3-trifluoro-propyl)-2,2,2-trifluoro-ethanesulfonamide]
15 | 30.1 | 103 | Nc1ccc(S(=O)(=O)N(CCCCC(F)(F)F)c2sc3ccccc3c2Cl)cc1Cl [Compound 667, 4-Amino-3-chloro-N-(3-chloro-benzo[b]thiophen-2-yl)-N-(5,5,5-trifluoro-pentyl)-benzenesulfonamide]
16 | 25.9 | 102 | CS(=O)(=O)Nc1ccc(S(=O)(=O)N(CCC(F)(F)F)c2sc3ccccc3c2Cl)cc1 [Compound 676, N-(3-Chloro-benzo[b]thiophen-2-yl)-4-methanesulfonylamino-N-(3,3,3-trifluoro-propyl)-benzenesulfonamide]
17 | 14.1 | 100 | CS(=O)(=O)Nc1ccc(S(=O)(=O)N(Cc2ccc(F)c(C(F)(F)F)c2)c2sc3ccccc3c2Cl)cc1 [Compound 659, N-(3-Chloro-benzo[b]thiophen-2-yl)-N-(4-fluoro-3-trifluoromethyl-benzyl)-4-methanesulfonylamino-benzenesulfonamide]
18 | 14.1 | 100 | CS(=O)(=O)Nc1ccc(S(=O)(=O)N(Cc2ccc(F)c(C(F)(F)F)c2)c2sc3ccccc3c2Br)cc1Br [Compound 661, 3-Bromo-N-(3-bromo-benzo[b]thiophen-2-yl)-N-(4-fluoro-3-trifluoromethyl-benzyl)-4-methanesulfonylamino-benzenesulfonamide]
19 | 13 | 102 | Nc1ccc(S(=O)(=O)N(Cc2ccc(F)c(C(F)(F)F)c2)c2cc3ccccc3s2)cc1 [Compound 653, 4-Amino-N-(benzo[b]thiophen-2-yl)-N-(4-fluoro-3-trifluoromethyl-benzyl)-benzenesulfonamide]
20 | 11.2 | 100 | CS(=O)(=O)Nc1ccc(S(=O)(=O)N(Cc2ccc(F)c(C(F)(F)F)c2)c2sc3ccccc3c2Br)cc1 [Compound 660, N-(3-Bromo-benzo[b]thiophen-2-yl)-N-(4-fluoro-3-trifluoromethyl-benzyl)-4-methanesulfonylamino-benzenesulfonamide]
21 | 8.1 | 103 | Nc1ccc(S(=O)(=O)N(CCCCC(F)(F)F)c2sc3ccccc3c2Cl)cc1 [Compound 666, 4-Amino-N-(3-chloro-benzo[b]thiophen-2-yl)-N-(5,5,5-trifluoro-pentyl)-benzenesulfonamide]
22 | 6 | 103 | Nc1ccc(S(=O)(=O)N(Cc2ccc(F)c(C(F)(F)F)c2)c2sc3ccccc3c2Br)cc1Br [Compound 651, 4-Amino-3-bromo-N-(3-bromo-benzo[b]thiophen-2-yl)-N-(4-fluoro-3-trifluoromethyl-benzyl)-benzenesulfonamide]
23 | 5 | 103 | Nc1ccc(S(=O)(=O)N(CCCCC(F)(F)F)c2sc3ccccc3c2Br)cc1 [Compound 668, 4-Amino-N-(3-bromo-benzo[b]thiophen-2-yl)-N-(5,5,5-trifluoro-pentyl)-benzenesulfonamide]
24 | 2.4 | 100 | O=C(O)c1ccc(S(=O)(=O)N(Cc2ccc(F)c(C(F)(F)F)c2)c2sc3ccccc3c2C2CC2)cc1 [Compound 675, N-(3-Cyclopropyl-benzo[b]thiophen-2-yl)-N-(4-fluoro-3-trifluoromethyl-benzyl)-4-carboxy-benzenesulfonamide]
